Test results taken from patent publication US11518760B2 (Liverpool School of Tropical Medicine, priority 2017, dated 2022).

Each molecule was assayed on C6/36 Aedes albopictus cell line infected with Wolbachia pipientis (Wolbachia strain wAlbB) (assay: In vitro insect cell line assay (anti-Wolbachia screen, SYTO 11 high content imaging)). Conditions: 168 h; C6/36 Aedes albopictus cells infected with Wolbachia pipientis wAlbB, 7 days incubation, SYTO 11 imaging; read-out: In vitro anti-Wolbachia activity.
Assay type: cell-based
Protocol: A C6/36 Aedes albopictus cell line infected with Wolbachia pipientis (Wolbachia strain wAlbB) derived from Aa23 A. albopictus cell line (O'Neill et al., 1997; Insect Mol Biol; Turner et al., (2006) J. Immunol. 7:1240-1249) was used to screen compounds. Cells were cultured in Leibovitz's L15+L-glutamine supplemented with heat-inactivated Foetal Calf Serum (HI-FCS), non-essential amino acids and tryptose phosphate broth. Culture medium was filter-sterilized through a 0.2 μm filter and stored at 4° C. Compounds were provided as 10 mM stocks in DMSO, diluted to 50 μM working stock to give final concentration of 5 μM on the test plate. Concentrated stocks were frozen at −20° C.
Prior to use in the screening assay, cell cultures were sub-passaged (6 days prior) to provide ˜90% confluent cells on Day 0 of screening assay. On Day 0 (assay set-up), the medium was removed from the stock culture flask and replaced with fresh medium. The cells were detached by scraping and cell density was calculated using an automated cell counter. The cells were then diluted at working density and aliquoted at 90 μl to each well of a Cell Carrier 384 well plate (Perkin Elmer). Cell plates were incubated at 26° C.
Control solution (DMSO-medium) was dispensed at 10 μl per well for “untreated” wells. Test solution (Drug-DMSO) was also dispensed at 10 μl (from working plate) per well for “treated” wells. The plates were incubated at 26° C., inside plastic wallet in incubator, for 7 days.
On Day 7, 25 μl of staining medium/dye (SYTO 11, Life Technologies) was added to each sample well and allowed to stain for 15 minutes in the dark. All the medium was removed from each sample well without disturbing the cells and replaced with 100 μl of fresh medium. Plates were imaged on the Operetta High Content Imaging system (Perkin Elmer) and analyzed using texture analysis through Harmony software (Perkin Elmer). The cell-based screen and analysis are described in detail in Clare et al. (2014) J Biomol Screen.

Structure (SMILES) | EC50 [nM]
FC(F)(F)c1ccccc1CNc1nc(N2CCOCC23CCC3)nc2ncccc12 [Example 285, 2-(8-oxa-5-azaspiro[3.5]nonan-5-yl)-N-(2-(trifluoromethyl)benzyl)pyrido[2,3-d]pyrimidin-4-amine] | 10 to 100
FC(F)(F)c1ccccc1CNc1nc(NC2CC2)nc2ncccc12 [Example 156, N^2-cyclopropyl-N^4-(2-(trifluoromethyl)benzyl)pyrido[2,3-d]pyrimidine-2,4-diamine] | 1 to 10
C[C@@H]1COCCN1c1nc(NCc2cccnc2C(F)(F)F)c2cccnc2n1 [Example 211, (R)-2-(3-methylmorpholino)-N-((2-(trifluoromethyl)pyridin-3-yl)methyl)pyrido[2,3-d]pyrimidin-4-amine] | 10 to 100
N#CC1CN(c2nc(NCc3cccnc3C(F)(F)F)c3cccnc3n2)CCO1 (stereo not drawn) [Example 257, 4-(4-(((2-(trifluoromethyl)pyridin-3-yl)methyl)amino)pyrido[2,3-d]pyrimidin-2-yl)morpholine-2-carbonitrile] | 10 to 100
FC(F)(F)c1ncccc1CNc1nc(N2CCC(C(F)(F)F)C2)nc2ncccc12 (stereo not drawn) [Example 236, N-((2-(trifluoromethyl)pyridin-3-yl)methyl)-2-(3-(trifluoromethyl)pyrrolidin-1-yl)pyrido[2,3-d]pyrimidin-4-amine] | < 0.01
FC(F)(F)c1ccccc1C1CCN1c1nc(N2CC(C(F)(F)F)C2)nc2ncccc12 (stereo not drawn) [Example 216, 2-(3-(trifluoromethyl)azetidin-1-yl)-4-(2-(2-(trifluoromethyl)phenyl)azetidin-1-yl)pyrido[2,3-d]pyrimidine] | 100 to 1000
CC(C)N(C)c1nc(N2CCOCC2c2ccccc2C(F)(F)F)c2cccnc2n1 (stereo not drawn) [Example 188, N-isopropyl-N-methyl-4-(3-(2-(trifluoromethyl)phenyl)morpholino)pyrido[2,3-d]pyrimidin-2-amine] | 1000 to 100000
FC(F)(F)c1ccccc1CNc1nc(NC2CNC2)nc2ncccc12 [Example 141, N^2-(azetidin-3-yl)-N^4-(2-(trifluoromethyl)benzyl)pyrido[2,3-d]pyrimidine-2,4-diamine] | 100 to 1000
CC1COC[C@@H](C)N1c1nc(NCc2ccccc2C(F)(F)F)c2cccnc2n1 (stereo partly drawn) [Example 277, 2-((3R)-3,5-dimethylmorpholino)-N-(2-(trifluoromethyl)benzyl)pyrido[2,3-d]pyrimidin-4-amine] | 10 to 100
FC(F)(F)c1ccccc1CNc1nc(N2CCC(Cl)CC2)nc2ncccc12 [Example 198, 2-(4-chloropiperidin-1-yl)-N-(2-(trifluoromethyl)benzyl)pyrido[2,3-d]pyrimidin-4-amine] | 1 to 10
CC(C)Nc1nc(NCc2ccccc2F)c2ccccc2n1 [Example 135, N^4-(2-fluorobenzyl)-N^2-isopropylquinazoline-2,4-diamine] | 1000 to 100000
CN(c1nc(NCc2cccnc2C(F)(F)F)c2cccnc2n1)C1CC1 [Example 175, N^2-cyclopropyl-N^2-methyl-N^4-((2-(trifluoromethyl)pyridin-3-yl)methyl)pyrido[2,3-d]pyrimidine-2,4-diamine] | 1 to 10
CC1(C)CN(c2nc(NCc3ccccc3C(F)(F)F)c3cccnc3n2)CCO1 [Example 247, 2-(2,2-dimethylmorpholino)-N-(2-(trifluoromethyl)benzyl)pyrido[2,3-d]pyrimidin-4-amine] | < 0.01
CNc1nc(NCc2ccccc2C(F)(F)F)c2cccnc2n1 [Example 143, N^2-methyl-N^4-(2-(trifluoromethyl)benzyl)pyrido[2,3-d]pyrimidine-2,4-diamine] | 10 to 100
CC1CN(c2nc(NCc3cccnc3C(F)(F)F)c3cccnc3n2)CCO1 (stereo not drawn) [Example 241, 2-(2-methylmorpholino)-N-((2-(trifluoromethyl)pyridin-3-yl)methyl)pyrido[2,3-d]pyrimidin-4-amine] | 0.01 to 1
CC(C)Nc1nc(NCc2cccnc2C(F)(F)F)c2sccc2n1 [Example 153, N^2-isopropyl-N^4-((2-(trifluoromethyl)pyridin-3-yl)methyl)thieno[3,2-d]pyrimidine-2,4-diamine] | 10 to 100
CS(=O)(=O)C1CCN(c2nc(NCc3cccnc3C(F)(F)F)c3cccnc3n2)C1 (stereo not drawn) [Example 263, 2-(3-(methylsulfonyl)pyrrolidin-1-yl)-N-((2-(trifluoromethyl)pyridin-3-yl)methyl)pyrido[2,3-d]pyrimidin-4-amine] | 100 to 1000
Cc1nc(N(C)C(C)c2ccccc2C(F)(F)F)c2sccc2n1 (stereo not drawn) [Example 66, N,2-dimethyl-N-(1-(2-(trifluoromethyl)phenyl)ethyl)thieno[3,2-d]pyrimidin-4-amine] | 1 to 10
CC1CN(c2nc(NCc3ccccc3C(F)(F)F)c3cccnc3n2)C[C@H](C)O1 (stereo partly drawn) [Example 268, 2-((6S)-2,6-dimethylmorpholino)-N-(2-(trifluoromethyl)benzyl)pyrido[2,3-d]pyrimidin-4-amine] | 10 to 100
COc1ccccc1CNc1nc(NC(C)C)nc2ccccc12 [Example 139, N^2-isopropyl-N^4-(2-methoxybenzyl)quinazoline-2,4-diamine] | 100 to 1000
FC(F)(F)CNc1nc(NCc2ccccc2C(F)(F)F)c2sccc2n1 [Example 42, N^2-(2,2,2-trifluoroethyl)-N^4-(2-(trifluoromethyl)benzyl)thieno[3,2-d]pyrimidine-2,4-diamine] | 100 to 1000
FC1(F)CCN(c2nc(NCc3cccnc3C(F)(F)F)c3cccnc3n2)C1 [Example 194, 2-(3,3-difluoropyrrolidin-1-yl)-N-((2-(trifluoromethyl)pyridin-3-yl)methyl)pyrido[2,3-d]pyrimidin-4-amine] | 1 to 10
CC(C)N(C)c1nc(NCc2ccccc2Cl)c2sccc2n1 [Example 33, N^4-(2-chlorobenzyl)-N^2-isopropyl-N^2-methylthieno[3,2-d]pyrimidine-2,4-diamine] | 100 to 1000
FC(F)(F)c1ccccc1CNc1nc(CN2CCC(Cl)CC2)nc2ncccc12 [Example 222] | 1000 to 100000
CC(C)Nc1nc(NCc2ccc(F)cc2)c2sccc2n1 [Example 15, N^4-(4-fluorobenzyl)-N^2-isopropylthieno[3,2-d]pyrimidine-2,4-diamine] | 100 to 1000
CC1(C)COCCN1c1nc(NCc2ccccc2C(F)(F)F)c2cccnc2n1 [Example 246, 2-(3,3-dimethylmorpholino)-N-(2-(trifluoromethyl)benzyl)pyrido[2,3-d]pyrimidin-4-amine] | 100 to 1000
CC(C)Nc1nc(NCc2cccc(Cl)c2)c2sccc2n1 [Example 18, N^4-(3-chlorobenzyl)-N^2-isopropyithieno[3,2-d]pyrimidine-2,4-diamine] | 1000 to 100000
CC(c1ccccc1C(F)(F)F)N(C)c1nc(Cl)nc2ccsc12 (stereo not drawn) [Example 67, 2-chloro-N-methyl-N-(1-(2-(trifluoromethyl)phenyl)ethyl)thieno[3,2-d]pyrimidin-4-amine] | 100 to 1000
COc1nc(N(C)C(C)c2ccccc2C(F)(F)F)c2sccc2n1 (stereo not drawn) [Example 68, 2-methoxy-N-methyl-N-(1-(2-(trifluoromethyl)phenyl)ethyl)thieno[3,2-d]pyrimidin-4-amine] | 10 to 100
COc1cccc(CNc2nc(NC(C)C)nc3ccsc23)c1F [Example 26, N^4-(2-fluoro-3-methoxybenzyl)-N^2-isopropylthieno[3,2-d]pyrimidine-2,4-diamine] | 100 to 1000
